From patent US20210045385A1, “PYRIDAZINONE-SUBSTITUTED KETOXIMES AS HERBICIDES” (FMC Corporation, priority 2018, published 2021)

Tests used:
Assay type in all cases: in vivo
[1] = test system: Italian ryegrass (Lolium mutiflorum); experiment: Test C preemergence, visual plant response rating; conditions: Test C, 0 is no effect, 100 is complete control
Outline: (§1)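 Seeds sown in a loam–sand blend got a directed preemergence soil spray; postemergence plants (2–10 cm, one- to two-leaf stage) were sprayed with compound in a non-phytotoxic solvent plus surfactant. Injury was scored visually against untreated controls after about 10 d in a greenhouse on a 0–100 scale (100 = complete control).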

[2] = test system: barnyardgrass (Echinochloa crus-galli); experiment: Test C preemergence, visual plant response rating; conditions: Test C, 0 is no effect, 100 is complete control
Outline: as §1

[3] = test system: foxtail, giant (giant foxtail, Setaria faberi); experiment: Test C preemergence, visual plant response rating; conditions: Test C, 0 is no effect, 100 is complete control
Outline: as §1

kochia (Bassia scoparia) [4] = experiment: Test C preemergence, visual plant response rating; conditions: Test C, 0 is no effect, 100 is complete control
Outline: as §1

[5] = test system: pigweed (Amaranthus retroflexus); experiment: Test C preemergence, visual plant response rating; conditions: Test C, 0 is no effect, 100 is complete control
Outline: as §1

[6] = test system: ragweed (common ragweed, Ambrosia artemisiifolia); experiment: Test C preemergence, visual plant response rating; conditions: Test C, 0 is no effect, 100 is complete control
Outline: as §1

[7] = test system: Italian ryegrass (Lolium mutiflorum); experiment: Test C postemergence, visual plant response rating
Outline: as §1

[8] = test system: barnyardgrass (Echinochloa crus-galli); experiment: Test C postemergence, visual plant response rating
Outline: as §1

[9] = test system: blackgrass (Alopecurus myosuroides); experiment: Test C postemergence, visual plant response rating
Outline: as §1

corn (Zea mays) = experiment: Test C postemergence, visual plant response rating
Outline: as §1

[10] = test system: foxtail, giant (giant foxtail, Setaria faberi); experiment: Test C postemergence, visual plant response rating
Outline: as §1

[11] = test system: galium (catchweed bedstraw, Galium aparine); experiment: Test C postemergence, visual plant response rating
Outline: as §1

kochia (Bassia scoparia) [12] = experiment: Test C postemergence, visual plant response rating
Outline: as §1

[13] = test system: pigweed (Amaranthus retroflexus); experiment: Test C postemergence, visual plant response rating
Outline: as §1

[14] = test system: ragweed (common ragweed, Ambrosia artemisiifolia); experiment: Test C postemergence, visual plant response rating
Outline: as §1

[15] = test system: wheat (Triticum aestivum); experiment: Test C postemergence, visual plant response rating
Outline: as §1

[16] = test system: barnyardgrass (Echinochloa crus-galli); experiment: Test D flooded paddy test, visual plant response rating; conditions: 250 g ai/ha, scale 0 to 100 (0 no effect, 100 complete control), 13 to 15 d
Outline: (§2)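 Greenhouse paddy assay scored on a 0–100 visual scale after 13 to 15 d, where 100 means complete control and a dash marks no result; dosing was into 3 cm floodwater over 2-leaf plants.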

[17] = test system: duck salad (Heteranthera limosa); experiment: as above; conditions: 250 g ai/ha, scale 0 to 100 (0 no effect, 100 complete control), 13 to 15 d
Outline: as §2

rice (Oryza sativa) = experiment: as above; conditions: 250 g ai/ha, scale 0 to 100 (0 no effect, 100 complete control), 13 to 15 d
Outline: as §2

[18] = test system: sedge umbrella (small-flower umbrella sedge, Cyperus difformis); experiment: as above; conditions: 250 g ai/ha, scale 0 to 100 (0 no effect, 100 complete control), 13 to 15 d
Outline: as §2

[19] = Test C, postemergence, 125 g ai/ha

Cc1nn(C)c(=O)c(/C(=N/OC(C)C)c2cccc3cc(Cl)ccc23)c1O [Compound 245]
Ryegrass, Italian plant response rating (0 to 100 scale) ([1]; 31 g ai/ha): 0
Ryegrass, Italian plant response rating (0 to 100 scale) ([1]; 125 g ai/ha): 0
Barnyardgrass plant response rating (0 to 100 scale) ([2]; 31 g ai/ha): 30
Barnyardgrass plant response rating (0 to 100 scale) ([2]; 125 g ai/ha): 70
Foxtail, Giant plant response rating (0 to 100 scale) ([3]; 31 g ai/ha): 60
Foxtail, Giant plant response rating (0 to 100 scale) ([3]; 125 g ai/ha): 90
Kochia plant response rating (0 to 100 scale) (kochia (Bassia scoparia) [4]; 31 g ai/ha): 0
Kochia plant response rating (0 to 100 scale) (kochia (Bassia scoparia) [4]; 125 g ai/ha): 0
Pigweed plant response rating (0 to 100 scale) ([5]; 31 g ai/ha): 50
Pigweed plant response rating (0 to 100 scale) ([5]; 125 g ai/ha): 100
Ragweed plant response rating (0 to 100 scale) ([6]; 31 g ai/ha): 10
Ragweed plant response rating (0 to 100 scale) ([6]; 125 g ai/ha): 40
Ryegrass, Italian plant response rating (0 to 100 scale) ([7]; Postemergence, 31 g ai/ha): 0
Ryegrass, Italian plant response rating (0 to 100 scale) [7, 19]: 0
Barnyardgrass plant response rating (0 to 100 scale) ([8]; Postemergence, 31 g ai/ha): 30
Barnyardgrass plant response rating (0 to 100 scale) [8, 19]: 50
Blackgrass plant response rating (0 to 100 scale) ([9]; Postemergence, 31 g ai/ha): 0
Blackgrass plant response rating (0 to 100 scale) [9, 19]: 0
Corn plant response rating (0 to 100 scale) (corn (Zea mays); Postemergence, 31 g ai/ha): 30
Corn plant response rating (0 to 100 scale) (corn (Zea mays); [19]): 30
Foxtail, Giant plant response rating (0 to 100 scale) ([10]; Postemergence, 31 g ai/ha): 30
Foxtail, Giant plant response rating (0 to 100 scale) [10, 19]: 80
Galium plant response rating (0 to 100 scale) ([11]; Postemergence, 31 g ai/ha): 70
Galium plant response rating (0 to 100 scale) [11, 19]: 90
Kochia plant response rating (0 to 100 scale) (kochia (Bassia scoparia) [12]; Postemergence, 31 g ai/ha): 0
Kochia plant response rating (0 to 100 scale) (kochia (Bassia scoparia) [12]; [19]): 20
Pigweed plant response rating (0 to 100 scale) ([13]; Postemergence, 31 g ai/ha): 70
Pigweed plant response rating (0 to 100 scale) [13, 19]: 90
Ragweed plant response rating (0 to 100 scale) ([14]; Postemergence, 31 g ai/ha): 20
Ragweed plant response rating (0 to 100 scale) [14, 19]: 70
Wheat plant response rating (0 to 100 scale) ([15]; Postemergence, 31 g ai/ha): 0
Wheat plant response rating (0 to 100 scale) [15, 19]: 0
Plant response rating, Barnyardgrass (Flood) [16]: 15
Plant response rating, Ducksalad (Flood) [17]: 30
Plant response rating, Rice (Flood) (rice (Oryza sativa)): 25
Plant response rating, Sedge, Umbrella (Flood) [18]: 50

CON=C(c1cc(Cl)cc(F)c1Cl)c1c(O)c(C)nn(C)c1=O [Compound 272]
Ryegrass, Italian plant response rating (0 to 100 scale) ([1]; 31 g ai/ha): 90
Ryegrass, Italian plant response rating (0 to 100 scale) ([1]; 125 g ai/ha): 100
Barnyardgrass plant response rating (0 to 100 scale) ([2]; 31 g ai/ha): 30
Barnyardgrass plant response rating (0 to 100 scale) ([2]; 125 g ai/ha): 50
Foxtail, Giant plant response rating (0 to 100 scale) ([3]; 31 g ai/ha): 80
Foxtail, Giant plant response rating (0 to 100 scale) ([3]; 125 g ai/ha): 80
Kochia plant response rating (0 to 100 scale) (kochia (Bassia scoparia) [4]; 31 g ai/ha): 10
Kochia plant response rating (0 to 100 scale) (kochia (Bassia scoparia) [4]; 125 g ai/ha): 90
Pigweed plant response rating (0 to 100 scale) ([5]; 31 g ai/ha): 70
Pigweed plant response rating (0 to 100 scale) ([5]; 125 g ai/ha): 100
Ragweed plant response rating (0 to 100 scale) ([6]; 31 g ai/ha): 20
Ragweed plant response rating (0 to 100 scale) ([6]; 125 g ai/ha): 40
Ryegrass, Italian plant response rating (0 to 100 scale) ([7]; Postemergence, 31 g ai/ha): 90
Ryegrass, Italian plant response rating (0 to 100 scale) [7, 19]: 100
Barnyardgrass plant response rating (0 to 100 scale) ([8]; Postemergence, 31 g ai/ha): 40
Barnyardgrass plant response rating (0 to 100 scale) [8, 19]: 60
Blackgrass plant response rating (0 to 100 scale) ([9]; Postemergence, 31 g ai/ha): 30
Blackgrass plant response rating (0 to 100 scale) [9, 19]: 80
Corn plant response rating (0 to 100 scale) (corn (Zea mays); Postemergence, 31 g ai/ha): 10
Corn plant response rating (0 to 100 scale) (corn (Zea mays); [19]): 20
Foxtail, Giant plant response rating (0 to 100 scale) ([10]; Postemergence, 31 g ai/ha): 60
Foxtail, Giant plant response rating (0 to 100 scale) [10, 19]: 90
Galium plant response rating (0 to 100 scale) ([11]; Postemergence, 31 g ai/ha): 90
Galium plant response rating (0 to 100 scale) [11, 19]: 100
Kochia plant response rating (0 to 100 scale) (kochia (Bassia scoparia) [12]; Postemergence, 31 g ai/ha): 70
Kochia plant response rating (0 to 100 scale) (kochia (Bassia scoparia) [12]; [19]): 80
Pigweed plant response rating (0 to 100 scale) ([13]; Postemergence, 31 g ai/ha): 70
Pigweed plant response rating (0 to 100 scale) [13, 19]: 90
Ragweed plant response rating (0 to 100 scale) ([14]; Postemergence, 31 g ai/ha): 60
Ragweed plant response rating (0 to 100 scale) [14, 19]: 80
Wheat plant response rating (0 to 100 scale) ([15]; Postemergence, 31 g ai/ha): 30
Wheat plant response rating (0 to 100 scale) [15, 19]: 60
Plant response rating, Barnyardgrass (Flood) [16]: 25
Plant response rating, Ducksalad (Flood) [17]: 60
Plant response rating, Rice (Flood) (rice (Oryza sativa)): 15
Plant response rating, Sedge, Umbrella (Flood) [18]: 65

C=CCON=C(c1cc(Cl)cc(Cl)c1Cl)c1c(O)c(C)nn(C)c1=O [Compound 294]
Ryegrass, Italian plant response rating (0 to 100 scale) ([1]; 31 g ai/ha): 60
Ryegrass, Italian plant response rating (0 to 100 scale) ([1]; 125 g ai/ha): 100
Barnyardgrass plant response rating (0 to 100 scale) ([2]; 31 g ai/ha): 70
Barnyardgrass plant response rating (0 to 100 scale) ([2]; 125 g ai/ha): 100
Foxtail, Giant plant response rating (0 to 100 scale) ([3]; 31 g ai/ha): 70
Foxtail, Giant plant response rating (0 to 100 scale) ([3]; 125 g ai/ha): 100
Kochia plant response rating (0 to 100 scale) (kochia (Bassia scoparia) [4]; 31 g ai/ha): 0
Kochia plant response rating (0 to 100 scale) (kochia (Bassia scoparia) [4]; 125 g ai/ha): 50
Pigweed plant response rating (0 to 100 scale) ([5]; 31 g ai/ha): 20
Pigweed plant response rating (0 to 100 scale) ([5]; 125 g ai/ha): 80
Ragweed plant response rating (0 to 100 scale) ([6]; 31 g ai/ha): 70
Ragweed plant response rating (0 to 100 scale) ([6]; 125 g ai/ha): 100
Ryegrass, Italian plant response rating (0 to 100 scale) ([7]; Postemergence, 31 g ai/ha): 50
Ryegrass, Italian plant response rating (0 to 100 scale) [7, 19]: 100
Barnyardgrass plant response rating (0 to 100 scale) ([8]; Postemergence, 31 g ai/ha): 20
Barnyardgrass plant response rating (0 to 100 scale) [8, 19]: 60
Blackgrass plant response rating (0 to 100 scale) ([9]; Postemergence, 31 g ai/ha): 0
Blackgrass plant response rating (0 to 100 scale) [9, 19]: 0
Corn plant response rating (0 to 100 scale) (corn (Zea mays); Postemergence, 31 g ai/ha): 0
Corn plant response rating (0 to 100 scale) (corn (Zea mays); [19]): 10
Foxtail, Giant plant response rating (0 to 100 scale) ([10]; Postemergence, 31 g ai/ha): 40
Foxtail, Giant plant response rating (0 to 100 scale) [10, 19]: 60
Galium plant response rating (0 to 100 scale) ([11]; Postemergence, 31 g ai/ha): 80
Galium plant response rating (0 to 100 scale) [11, 19]: 100
Kochia plant response rating (0 to 100 scale) (kochia (Bassia scoparia) [12]; Postemergence, 31 g ai/ha): 20
Kochia plant response rating (0 to 100 scale) (kochia (Bassia scoparia) [12]; [19]): 30
Pigweed plant response rating (0 to 100 scale) ([13]; Postemergence, 31 g ai/ha): 20
Pigweed plant response rating (0 to 100 scale) [13, 19]: 20
Ragweed plant response rating (0 to 100 scale) ([14]; Postemergence, 31 g ai/ha): 80
Ragweed plant response rating (0 to 100 scale) [14, 19]: 100
Wheat plant response rating (0 to 100 scale) ([15]; Postemergence, 31 g ai/ha): 0
Wheat plant response rating (0 to 100 scale) [15, 19]: 60
Plant response rating, Barnyardgrass (Flood) [16]: 0
Plant response rating, Ducksalad (Flood) [17]: 0
Plant response rating, Rice (Flood) (rice (Oryza sativa)): 0
Plant response rating, Sedge, Umbrella (Flood) [18]: 0
